Experimental data from patent US20120129842A1, “BISTHIAZOLE INHIBITORS OF PRO-MATRIX METALLOPROTEINASE ACTIVATION” (priority 2010, published 2012).
Where a name gives a salt, the structure may show the parent alone.

Columns and labels:
[1] = target: proMMP13(1-268) (SEQ ID NO:7) (Homo sapiens, UniProt P45452); test: ThermoFluor binding assay with proMMP13(1-268); set-up: 6xHis (C); made in house; conditions: pH 7.0
Summary of the method: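 Thermal shift binding with 3.5 μM protein and 25 μM 1,8-ANS in 50 mM HEPES pH 7.0, 100 mM NaCl, 0.001% Tween-20, 2.5 mM MgCl2, 300 μM CaCl2. Samples were heated 40 to 90 °C at 1 °C/min, fluorescence read at 500 nm. Tm shifts across an 11-point DMSO dilution series were fitted with DSC-derived thermodynamic parameters.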

[2] = target: T1, proMMP9(20-445;ΔFnII) (SEQ ID NO:6) (Homo sapiens, UniProt P14780, DEL216-390); test: ThermoFluor binding assay with proMMP9(20-445;ΔFnII); conditions: pH 7.0
T1 construct: start methionine (N); made in house; host or cells: E. coli BL21(DE3) RIL
T1 sequence (P14780 with tags, fused parts or gaps DEL216-390): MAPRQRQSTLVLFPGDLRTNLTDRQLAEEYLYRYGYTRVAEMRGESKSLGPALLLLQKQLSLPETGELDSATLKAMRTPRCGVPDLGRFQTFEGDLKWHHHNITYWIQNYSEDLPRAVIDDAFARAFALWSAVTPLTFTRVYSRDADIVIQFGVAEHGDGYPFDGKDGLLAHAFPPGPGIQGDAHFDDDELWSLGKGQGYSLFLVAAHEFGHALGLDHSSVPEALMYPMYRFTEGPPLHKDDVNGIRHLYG
Summary of the method: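 proMMP9(20-445;ΔFnII) at 2.8 μM with 50 μM 1,8-ANS in 50 mM HEPES pH 7.0, 100 mM NaCl, 0.001% Tween-20, 2.5 mM MgCl2, 300 μM CaCl2; compounds serially diluted in DMSO. Heated 40–90 °C at 1 °C/min, fluorescence read at 500±25 nm. Tm fit by standard equations; binding fit using DSC/TF-derived thermodynamic parameters.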

[3] = target: T2, full-length proMMP9(1-707) (SEQ ID NO:1) (Homo sapiens, UniProt P14780, R574P); test: proMMP9/MMP3 P126 Activation Assay; format: biochemical; conditions: 20 nM proMMP9, 20 nM MMP3, 80 min 37° C.
T2 construct: made in house; host or cells: HEK293 (proMMP9, secreted); E. coli (MMP3)
Experimental: The reaction volume was 50 μL. […] Reactivity of residual MMP3 towards P-126 substrate was minimal under these conditions.

[4] = target: T3, proMMP9(67-444;ΔFnII) (SEQ ID NO:5) (Homo sapiens, UniProt P14780, DEL216-390); test: ThermoFluor binding assay with proMMP9(67-444;ΔFnII); conditions: pH 7.0
T3 construct: start methionine (N); made in house; host or cells: E. coli BL21(DE3) RIL
T3 sequence (P14780 with tags, fused parts or gaps DEL216-390): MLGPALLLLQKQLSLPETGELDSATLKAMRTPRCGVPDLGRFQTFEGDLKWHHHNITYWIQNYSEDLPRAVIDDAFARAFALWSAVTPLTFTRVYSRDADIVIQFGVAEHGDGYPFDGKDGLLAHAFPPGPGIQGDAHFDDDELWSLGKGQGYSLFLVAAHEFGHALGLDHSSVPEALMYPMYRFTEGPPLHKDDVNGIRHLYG
Summary of the method: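 Thermal shift binding with 3.5 μM proMMP9(67-444;ΔFnII) and 50 μM 1,8-ANS in 50 mM HEPES pH 7.0, 100 mM NaCl, 2.5 mM MgCl2, 300 μM CaCl2, 0.001% Tween-20, with serially diluted compound. Heated 40 to 90° C at 1° C/min; fluorescence-derived Tm fitted using DSC/ThermoFluor thermodynamic parameters.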

T2 sequence (P14780 20-707 R574P): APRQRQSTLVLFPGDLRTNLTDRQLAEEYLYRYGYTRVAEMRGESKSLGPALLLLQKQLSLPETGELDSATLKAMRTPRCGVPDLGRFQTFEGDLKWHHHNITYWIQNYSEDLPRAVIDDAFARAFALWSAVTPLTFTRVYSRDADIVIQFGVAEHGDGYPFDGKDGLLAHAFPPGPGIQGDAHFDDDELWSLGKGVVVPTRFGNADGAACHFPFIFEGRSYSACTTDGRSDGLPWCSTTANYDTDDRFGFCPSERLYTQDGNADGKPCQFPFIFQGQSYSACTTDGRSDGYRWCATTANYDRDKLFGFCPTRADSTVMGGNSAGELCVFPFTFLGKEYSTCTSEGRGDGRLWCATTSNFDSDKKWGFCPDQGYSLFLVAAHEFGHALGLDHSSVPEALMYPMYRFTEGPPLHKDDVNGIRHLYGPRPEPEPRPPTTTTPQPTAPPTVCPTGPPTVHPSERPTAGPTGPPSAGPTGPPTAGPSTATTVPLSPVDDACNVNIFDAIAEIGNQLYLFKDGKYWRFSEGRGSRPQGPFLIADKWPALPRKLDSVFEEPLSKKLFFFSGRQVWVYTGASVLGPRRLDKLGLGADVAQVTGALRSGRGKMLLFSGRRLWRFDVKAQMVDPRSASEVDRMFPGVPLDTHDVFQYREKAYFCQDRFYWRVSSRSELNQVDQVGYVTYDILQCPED

Row | Kd [1] | Kd [2] | IC50 [3] | Kd [4] | SMILES
1 | 2400 nM | 1800 nM | 2500 nM | 500 nM | COc1ccc(S(C)(=O)=O)cc1Nc1nc(-c2sc(NC(C)=O)nc2C)cs1 [Example 74, N-[2-(5-Methanesulfonyl-2-methoxy-phenylamino)-4′-methyl-[4,5]bithiazolyl-2′-yl]acetamide.HBr]
2 | 1400 nM | 760 nM | 220 nM | 320 nM | Cc1nc(C(=O)O)sc1-c1csc(Nc2cc(C(N)=O)ccc2OC(C)C)n1 [Example 100, 2-(5-Carbamoyl-2-isopropoxy-phenylamino)-4′-methyl-[4,5′]bithiazolyl-2′-carboxylic acid]
3 | > 95000 nM | 11000 nM | 1900 nM | 1700 nM | COc1ccc(C(=O)O)cc1Nc1nc(-c2sc(NC(C)=O)nc2C)cs1 [Example 57, 3-(2′-Acetylamino-4′-methyl-[4,5′]bithiazolyl-2-ylamino)-4-methoxy-benzoic acid.HBr]
4 | 6200 nM | 3300 nM | 520 nM | 2200 nM | CCOc1ccc(C(N)=O)cc1Nc1nc(-c2sc(C(=O)N3CCCN(C)CC3)nc2C)cs1 [Example 119, 4-Ethoxy-3-[4′-methyl-2′-(4-methyl-[1,4]diazepane-1-carbonyl)-[4,5′]bithiazolyl-2-ylamino]-benzamide.TFA]
5 | 84000 nM | 8900 nM | > 20000 nM | 3000 nM | CC(=O)Nc1nc(C)c(-c2csc(Nc3cc(C(N)=O)ccc3Cl)n2)s1 [Example 26, 3-(2′-Acetylamino-4′-methyl-[4,5′]bithiazolyl-2-ylamino)-4-chloro-benzamide.HBr]
6 | 2200 nM | 1200 nM | 910 nM | 500 nM | Cc1nc(C(=O)N(C)C)sc1-c1csc(Nc2cc(C(N)=O)ccc2OC(C)C)n1 [Example 106, 2-(5-Carbamoyl-2-isopropoxy-phenylamino)-4′-methyl-[4,5′]bithiazolyl-2′-carboxylic acid dimethylamide.TFA]
7 | 8700 nM | 2400 nM | 370 nM | 1200 nM | CCOc1ccc(C(N)=O)cc1Nc1nc(-c2sc(C(=O)NC3CCN(C)CC3)nc2C)cs1 [Example 121, 2-(5-Carbamoyl-2-ethoxy-phenylamino)-4′-methyl-[4,5′]bithiazolyl-2′-carboxylic acid (1-methyl-piperidin-4-yl)-amide.TFA]
8 | 1900 nM | 720 nM | 150 nM | 250 nM | Cc1nc(NC(=O)C2CCN(C)CC2)sc1-c1csc(Nc2cc(C(N)=O)ccc2OC(C)C)n1 [Example 32, 1-Methyl-piperidine-4-carboxylic acid [2-(5-carbamoyl-2-isopropoxy-phenylamino)-4′-methyl-[4,5′]bithiazolyl-2′-yl]-amide]
9 | 5500 nM | 640 nM | 1100 nM | 1200 nM | CCOc1ccc(C(N)=O)cc1Nc1nc(-c2sc(C(=O)N3CCN(C(C)C)CC3)nc2C)cs1 [Example 118, 4-Ethoxy-3-[2′-(4-isopropyl-piperazine-1-carbonyl)-4′-methyl-[4,5]bithiazolyl-2-ylamino]-benzamide.TFA]
10 | 12000 nM | 82 nM | 460 nM | 730 nM | Cc1nc(C)c(-c2csc(Nc3cc(C(N)=O)ccc3OC(F)(F)F)n2)s1 [Example 17, 3-(2′,4′-Dimethyl-[4,5′]bithiazolyl-2-ylamino)-4-trifluoromethoxy-benzamide]
11 | 1400 nM | 89 nM | 260 nM | 340 nM | CCOc1ccc(C(N)=O)cc1Nc1nc(-c2sc(N)nc2C)cs1 [Example 7, 3-(2′-Amino-4′-methyl-[4,5′]bithiazolyl-2-ylamino)-4-ethoxy-benzamide]
12 | 39000 nM | 1300 nM | 100 nM | 560 nM | CCOc1ccc(C(N)=O)cc1Nc1nc(-c2sc(NC(C)=O)nc2C)cs1 [Example 8, 3-(2′-Acetylamino-4′-methyl-[4,5′]bithiazolyl-2-ylamino)-4-ethoxy-benzamide.TFA]

The next lines start with the molecule.

Row | SMILES | Kd [1] | Kd [2] | IC50 [3] | Kd [4]
13 | Cc1nc(C)c(-c2csc(Nc3cc(C(N)=O)ccc3OCC(C)C)n2)s1 [Example 28, 3-(2′,4′-Dimethyl-[4,5′]bithiazolyl-2-ylamino)-4-isobutoxy-benzamide] | 56000 nM | 11000 nM | > 20000 nM | > 95000 nM
14 | COc1cc(C)c(C(N)=O)cc1Nc1nc(-c2sc(C)nc2C)cs1 [Example 36, 5-(2′,4′-Dimethyl-[4,5′]bithiazolyl-2-ylamino)-4-methoxy-2-methyl-benzamide.TFA] | 11000 nM | 850 nM | 670 nM | 27000 nM
15 | Cc1ccc(C(N)=O)cc1Nc1nc(-c2sc(N)nc2C)cs1 [Example 25, 3-(2′-Amino-4′-methyl-[4,5′]bithiazolyl-2-ylamino)-4-methyl-benzamide.HBr] | 31000 nM | 2700 nM | 4600 nM | 6800 nM
16 | Cc1nc(Nc2ccccn2)sc1-c1csc(Nc2cc(C(N)=O)ccc2OC(C)C)n1 [Example 96, 4-Isopropoxy-3-[4′-methyl-2′-(pyridin-2-ylamino)-[4,5′]bithiazolyl-2-ylamino]-benzamide.TFA] | 16000 nM | 280 nM | ~5000 nM | 3800 nM
17 | CCN1CCN(C(=O)c2nc(C)c(-c3csc(Nc4cc(C(N)=O)ccc4OC(C)C)n3)s2)CC1 [Example 102, 3-[2′-(4-Ethyl-piperazine-1-carbonyl)-4′-methyl-[4,5′]bithiazolyl-2-ylamino]-4-isopropoxy-benzamide.TFA] | 660 nM | 700 nM | 130 nM | 730 nM
18 | COc1cc2c(cc1Nc1nc(-c3sc(C)nc3C)cs1)C(=O)NC2 [Example 31, 6-(2′,4′-Dimethyl-[4,5′]bithiazolyl-2-ylamino)-5-methoxy-2,3-dihydro-isoindol-1-one] | 49000 nM | 9000 nM | ~7000 nM | 33000 nM
19 | Cc1nc(N)sc1-c1csc(Nc2cc(C#N)ccc2OC(C)C)n1 [Example 71, 3-(2′-Amino-4′-methyl-[4,5′]bithiazolyl-2-ylamino)-4-isopropoxy-benzonitrile.HBr] | 42 nM | 280 nM | 870 nM | 95 nM
20 | Cc1nc(C(=O)N2CCN(C3CCCCC3)CC2)sc1-c1csc(Nc2cc(C(N)=O)ccc2OC(C)C)n1 [Example 108, 3-[2′-(4-Cyclohexyl-piperazine-1-carbonyl)-4′-methyl-[4,5′]bithiazolyl-2-ylamino]-4-isopropoxy-benzamide.TFA] | 320 nM | 310 nM | 1700 nM | > 95000 nM
21 | COc1c(F)cc(C(N)=O)cc1Nc1nc(-c2sc(C)nc2C)cs1 [Example 34, 3-(2′,4′-Dimethyl-[4,5′]bithiazolyl-2-ylamino)-5-fluoro-4-methoxy-benzamide] | 28000 nM | 7800 nM | 9000 nM | 12000 nM
22 | CCOc1ccc(-c2ncco2)cc1Nc1nc(-c2sc(C)nc2C)cs1 [Example 80, (2′,4′-Dimethyl-[4,5′]bithiazolyl-2-yl)-(2-ethoxy-5-oxazol-2-yl-phenyl)-amine.TFA] | 3600 nM | 23000 nM | 650 nM | 1800 nM
